88 compounds from a melting point compilation (Tetko et al.; mined from patent text by program, amines drawn as free bases though some values may be those of a salt) can be followed below.

For orientation: melting point means the temperature of the solid-liquid transition. With `c1ccc(COc2ccc3[nH]c(-c4ccccc4)cc3c2)cc1`, the melting point lay within 168 to 170 °C.

Consider `ClCc1nc(Cl)c2ccccc2n1`, for which the melting point lay within 99 to 101 °C.

Turning to `COC(=O)c1[nH]c(-c2ccccc2)c(NC(N)=O)c1C(=O)OC`, the melting point fell in the range of 246 to 248 °C.

`CN(c1cc(OC(F)(F)F)cc2cc(C(=O)NCCSC(c3ccccc3)(c3ccccc3)c3ccccc3)[nH]c12)S(=O)(=O)c1cccs1` returned a melting point of 222 to 223 °C.

Take `COC(=O)CCn1ccc2cc([N+](=O)[O-])ccc21`: the melting point was in the range of 97 to 99 °C.

`COC(=O)CC(C(=O)OC)C(=O)c1ccccc1OC` (stereo not drawn): the melting point was 75 to 76 °C.

In turn, `CN1CCC(c2c[nH]c3ccc(NC(=O)c4ccccc4F)nc23)CC1` registered a melting point of 125 to 126 °C.

The compound `O=[N+]([O-])c1cccc(-c2ccnc3c(-c4ccsc4)cnn23)c1` displayed a melting point of 148 to 150 °C.

Compound `CCOc1ccc(Nc2ncc3cc(-c4c(Cl)cccc4Cl)c(=O)n(CC)c3n2)cc1` came in with a melting point of 192 to 194 °C.

For the compound `COC(=O)CC(=O)Nc1ccccc1COc1ccc(C(C)=O)c(O)c1`, the melting point lay in the range of 130 to 132 °C.

`CCn1c(=O)c2c(nc(C=Cc3cc(OC)ccc3S(=O)(=O)O)n2C)n(CC)c1=O` showed a melting point of 209 to 210 °C.

In turn, `CC(C)Cn1c(Nc2cc(C(F)(F)F)ccc2C(F)(F)F)nc(C(F)(F)F)cc1=O` displayed a melting point of 136 to 138 °C.

Turning to `Cc1cc(-c2cc(COS(C)(=O)=O)c(=O)n(CC=Cc3ccccc3)n2)ccc1F`, the melting point lay in the range of 78.4 to 80.5 °C.

In the case of `CC1OC(n2cc(F)c(N)nc2=O)C(O)C1OC(=O)c1ccccc1` (stereo not drawn), the melting point fell in the range of 127 to 129 °C.

For the compound `Cn1nc(-c2ccccc2)c(CNc2ccccc2C(=O)O)c1Cl`, the melting point was in the range of 192 to 193 °C.

In turn, `CC1(C)SC(c2ccncc2)NC1C(=O)O` (stereo not drawn) returned a melting point of 149 to 151 °C.

Compound `Cc1cccc(NC(=O)CN2CCN(c3ncccc3C#N)CC2)c1` returned a melting point of 99 to 100 °C.

Regarding `COc1ccc(C(=O)O)c(Oc2ccc(C(F)(F)F)cc2NS(=O)(=O)c2cc(C(F)(F)F)cc(C(F)(F)F)c2)c1`, the melting point came to 182 °C.

The compound `CCOC(=O)COc1cccc(C(=O)Nc2ccccc2Sc2ccccc2-c2nnn[nH]2)c1` came in with a melting point of 130 to 133 °C.

With `OC1CC=C(c2ccc(Cl)cc2)CC1` (stereo not drawn), the melting point was in the range of 108 to 112 °C.

In the case of `C[C@@H](n1cnc2cc(N(C)C)ccc2c1=O)[C@](O)(Cn1cncn1)c1ccc(F)cc1F`, the melting point came out at 201 °C.

As for `CNCC(C(=O)O)c1ccc(O)cc1` (stereo not drawn), the melting point lay in the range of 218 to 221 °C.

For the compound `N=C(Nc1ccc(C2CCCC2)c(CN2CCC[C@H]2CO)c1)c1cccs1`, the melting point is 132 to 133 °C.

As for `COc1ccc(C2=NN(Cc3cccnc3)C(=O)[C@H]3CC=CC[C@@H]23)cc1OC` (relative stereo), the melting point was in the range of 117 to 120 °C.

Compound `COc1cccc(C(=O)OCC2(COC(=O)c3cccc(OC)c3)c3ccccc3-c3ccccc32)c1` came in with a melting point of 129 to 130 °C.

As for `CC(C)(C)C1=NN(c2ccc(C(=O)O)cc2)C(c2ccc(Cl)cc2)C1` (stereo not drawn), the melting point was determined as 208 °C.

For `C[Si](C)(C)CCCCNC(=O)n1cc(F)c(=O)[nH]c1=O`, the melting point was in the range of 129 to 132 °C.

`CCC(O/N=C(\C(=O)O)c1csc(N)n1)C(=O)OC(C)(C)C` (stereo not drawn): the melting point was 122 to 124 °C.

In turn, `COC1CC(c2ccc(-c3ccc(C#N)cc3)cc2)C(OC)O1` (stereo not drawn) came in with a melting point of 149 to 150 °C.

Regarding `FC(F)(F)c1cc(Cl)c(-n2cc(I)nn2)c(Cl)c1`, the melting point was in the range of 194 to 195 °C.

Compound `CCCC(CCC)n1nnc2c(Oc3c(Br)cc(C(C)C)cc3OC)nc(C)nc21` displayed a melting point of 129 to 131 °C.

On to `CCN(CCO)C(=O)C1=C(C(=O)Nc2cc(OC3CCCC3)c(Cl)cc2F)CCCC1`, for which the melting point is 132 to 133 °C.

`Cc1ccc(S(=O)(=O)N2CCC[C@H](CC(=O)NC(C)C)c3ccccc32)cc1` displayed a melting point of 131 to 133 °C.

In turn, `O=S(=O)(Nc1cccc(OCc2ccc3ccccc3n2)c1)c1ccc(Cl)cc1` yielded a melting point of 157 to 159 °C.

In turn, `CCON=C(CC)C1=C(O)CC(c2ccc3c(c2)N(COC)C(=O)CO3)CC1=O` (stereo not drawn) showed a melting point of 101 to 103 °C.

As for `CC#CCOc1cc(/C=C/C(=O)O)ccc1OC(F)F`, the melting point lay within 206 to 208 °C.

For the compound `O=C1Oc2ccccc2Oc2ccccc21`, the melting point is 62 to 66 °C.

The compound `O=c1[nH]c(COCc2ccccc2)nc2nccnc12` had a melting point of 157 to 159 °C.

With `CC(=O)OC(CCCCl)C(=O)OCc1ccccc1` (stereo not drawn), the melting point fell in the range of 40 to 41 °C.

Turning to `CC(C)(O)CCOc1c(-c2ccc(S(C)(=O)=O)cc2)cnn(-c2ccc(F)cc2)c1=O`, the melting point fell in the range of 133 to 134 °C.

The compound `CCCCCCCCCCCc1ccc(CC(=O)O)cc1` yielded a melting point of 83 to 84 °C.

Consider `Cc1c(C(=O)O)cnn1-c1ccc(C(F)(F)F)cc1`, for which the melting point was 181 °C.

In the case of `CCOC(=O)N=C1N(c2c(C)cccc2C)CC(C)N1c1c(C)cccc1C` (stereo not drawn), the melting point fell in the range of 124 to 125 °C.

`O=c1c2c([nH]n1-c1c(F)cc(Cl)c3nc(Cl)sc13)CCCC2` came in with a melting point of 191 to 197 °C.

`CCCCNC(=O)N(C(=O)NCCCC)c1c(OC(=O)N(CC)CC)nc(C)c2cc(OC)c(OC)cc12` yielded a melting point of 138 to 140 °C.

On to `COc1ccc(N2CCN(c3c(C)c4c(c(C(C)=O)c3C)OC(C)(C)C4)CC2)cc1`, for which the melting point fell in the range of 156 to 159 °C.

The compound `CC1CCC(N(CC2CCCC(CN(C(=O)Nc3ccc(N(C)C)cc3)C3CCC(C)CC3)C2)C(=O)Nc2ccc(N(C)C)cc2)CC1` (stereo not drawn) showed a melting point of 106 to 110 °C.

Take `CCc1ccc2c(c1)C=Cc1cc(C)ccc1C2c1cn(-c2ccc(SCC(=O)O)nn2)c(=O)[nH]c1=O` (stereo not drawn): the melting point lay within 225 to 230 °C.

`COc1ccc(C2=NC(NC(=O)Nc3ccc(C(=O)c4ccccc4)cc3)c3nnc(C)n3-c3ccccc32)cc1` (stereo not drawn) returned a melting point of 225 °C.

Compound `N#Cc1ccccc1-c1cccc(-c2cnc3nc(C(F)(F)F)cnn23)c1F` yielded a melting point of 167 to 168 °C.

As for `CC1(C)CCC(OC2=C(c3ccc(S(C)(=O)=O)cc3)C(C)(C)OC2=O)C1` (stereo not drawn), the melting point lay in the range of 99 to 100 °C.

For `COc1cccc(CC[C@H]2CNCCN2)c1`, the melting point was 53 to 57 °C.

Compound `COC(=O)CCC#Cc1cc(Cl)ccc1N` returned a melting point of 67 °C.

In turn, `CCc1oc2ccccc2c1C(=O)NCc1ccc2cc(O)ccc2c1` had a melting point of 203 to 205 °C.

For the compound `CC1CC(=O)c2cccc(C#N)c21` (stereo not drawn), the melting point was in the range of 109 to 111 °C.

Compound `CCCCCCCCCCCCCCCC(=O)Oc1c(F)c(F)c(F)c(F)c1F` had a melting point of 42 to 44 °C.

Turning to `Cc1oc(-c2ccco2)nc1COc1ccc(CO)cc1`, the melting point lay in the range of 91 to 92 °C.

`CS(=O)C(c1ccc(Cl)cc1)c1ccc(Cl)cc1` (stereo not drawn) showed a melting point of 110 °C.

As to `CCCN(CCC)C(N)=C(C#N)C#N`, the melting point is 100 to 105 °C.

Turning to `CC(C)CNc1nc(-c2ccccc2)c(Br)n2ccnc12`, the melting point came out at 138 °C.

For `COCOc1cc(OC)c(OC)cc1-c1c(C(=O)OC)[nH]c(C(=O)OC)c1-c1ccc(OC)c(OC)c1`, the melting point fell in the range of 162 to 163 °C.

The compound `C#CC(C)(C)N1CCN(C(=O)OC(C)(C)C)CC1` yielded a melting point of 106 to 107 °C.

Turning to `CC12CCC3C4CCC(=O)C=C4CCC3C1CCC2CO` (stereo not drawn), the melting point lay in the range of 115 to 118 °C.

Consider `CC(C)(Nc1ccc(Cc2ccccc2)cc1)C(=O)O`, for which the melting point came out at 130 °C.

In turn, `Cc1[nH]c(C(=O)N2CCCC2)c(C)c1-c1nc2ccc(C(=O)c3ccccc3)cc2[nH]1` had a melting point of 155 to 157 °C.

Consider `COc1ccc(Cn2c(C)cc3cnnc(OCc4ccccc4)c32)cc1`, for which the melting point lay in the range of 152 to 156 °C.

With `Cc1ccccc1NC(=O)C1CCc2nc[nH]c2C1` (stereo not drawn), the melting point is 100 to 105 °C.

For the compound `N#Cc1cn(-c2cccnc2)nc1-c1ccc([N+](=O)[O-])o1`, the melting point was in the range of 206 to 207 °C.

Compound `c1ccc(C(c2ccccc2)(c2ccns2)n2ccnc2)cc1` came in with a melting point of 164 to 167 °C.

As for `Brc1ccc2[nH]cc(Cc3cccnc3)c2c1`, the melting point is 122 °C.

In turn, `CNCCCOc1ccc(S(=O)(=O)c2[nH]c3ccccc3c2C(C)C)cc1` returned a melting point of 115 °C.

The compound `CCn1nc(-c2ccccc2)c(C(C)=O)c(Nc2ccc(CN)cc2)c1=O` returned a melting point of 139 °C.

Take `Cc1ccc(-c2coc3cc(O)cc(O)c3c2=O)cc1`: the melting point fell in the range of 215 to 217 °C.

In the case of `O=C1NCCc2c1c1cccc3c1n2CCC3`, the melting point was in the range of 254 to 256 °C.

The compound `COC(=O)c1nc2cc(F)ccc2c(O)c1C(=O)OC` yielded a melting point of 228 °C.

Take `CCc1cc2c(=O)n3cc(C(N)=O)ccc3nc2s1`: the melting point was in the range of 278 to 280 °C.

Compound `COc1ccc2c(-c3ccc(C#Cc4ccccc4)cc3)cc(=O)oc2c1` came in with a melting point of 178 to 180 °C.

`CCc1cc(OC)c(OC)cc1Cc1cnc(N)nc1N`: the melting point was in the range of 206 to 207 °C.

In turn, `Cc1ccc(S(=O)(=O)C(=CNc2ccc(Br)cn2)C(=O)c2ccccc2)cc1` registered a melting point of 205 °C.

As for `CC(C)(S)[C@@H](NC(=O)c1ccc(Br)cc1)C(=O)O`, the melting point was 176 °C.

Regarding `CCCNC1=NS(=O)(=O)c2c(sc(C)c2C#N)N1C(=O)OCC`, the melting point was in the range of 175 to 179 °C.

As for `Oc1ccc(-c2nnc(Nc3ccc(Br)c(Cl)c3)s2)cc1O`, the melting point was 220 °C.

For the compound `CCCCC1c2ccccc2-c2cc(Br)ccc2N1S(=O)(=O)c1ccc(O)cc1` (stereo not drawn), the melting point is 178 to 180 °C.

Consider `Brc1ccc(OCc2ccc3ccccc3c2)cc1`, for which the melting point lay within 104 to 106 °C.

`COC(=O)c1ccc(C#CC(=O)c2ccc3c(c2)C(C)(C)CCC3)cc1O`: the melting point fell in the range of 114 to 116 °C.

Regarding `CC(=O)Nc1cccc(-c2cnc3c(c2)nc(-c2cccnc2N)n3-c2ccc(CNC(=O)c3ccccc3)cc2)c1`, the melting point was 76 to 81 °C.

On to `O[C@@H]1Cc2ccccc2C[C@H]1N1CCN(c2ccccc2)CC1` (relative stereo), for which the melting point was 152 to 154 °C.

`CCc1cc(NCc2ccc(-c3ccccc3C#N)cc2)n2ncc([N+](=O)[O-])c2n1`: the melting point lay in the range of 205 to 207 °C.
